Read-outs that look alike come from different tables or passages of the source.
Experiment: Phase 1 multiple-dose study, plasma PK
Assay type: in vivo, human
Details: for half-life / Tmax / Cmax / AUC: both sexes, human, plasma, oral; for AUC: read-out: Plasma AUCtau, geometric mean (geometric CV %)
Method: Subjects were enrolled to 1 of 2 dosage regimens. Subject enrollment was stratified by sex to ensure approximate sex balance in each cohort.
Morning doses were administered following a standard light breakfast (e.g., milk and cereal, toast, and fruit) on all days. TID dosing (three times a day) was approximately 8 hours apart. Subjects fasted from midnight onwards, until the morning breakfast each day. There was no fluid restriction during the study, but subjects should not have consumed excessive amounts of fluid on any day.
The Phase 1, open-label, multiple-dose study of Example 1 was conducted for Cohorts 1-3, 4A, and 4B.
Morning doses were administered following a standard light breakfast (e.g., milk and cereal, toast, and fruit) on all days. TID dosing (three times a day) was approximately 8 hours apart, and BID dosing (two times a day) was 12 hours apart. Subjects fasted from midnight onwards, until the morning breakfast each day. There was no fluid restriction during the study, but subjects were not to consume excessive amounts of fluid on any day.

C[C@H]1CN2CCNCc3ccc(C(=O)NCC(F)F)c1c32 [Compound 1, (R)—N-(2,2-difluoroethyl)-7-methyl-1,2,3,4,6,7-hexahydro-[1,4]diazepino[6,7,1-hi]indole-8-carboxamide]
average plasma concentrations over the dosing interval, comparability (Cohort 2 (12 mg TID) vs Cohort 4B (18 mg BID)): ~28%
Plasma Cavg, geometric mean (geometric CV %) (Day 8, Cohort 1 (6 mg TID)): 9.947 (2.6843) ng/mL
Plasma Ctrough, geometric mean (geometric CV %) (Day 8, Cohort 1 (6 mg TID)): 5.150 (1.6616) ng/mL
Plasma Cavg, geometric mean (geometric CV %) (Day 8, Cohort 2 (12 mg TID)): 26.19 (14.697) ng/mL
Plasma Ctrough, geometric mean (geometric CV %) (Day 8, Cohort 2 (12 mg TID)): 14.96 (9.9859) ng/mL
Plasma Cavg, geometric mean (geometric CV %) (Day 8, Cohort 3 (12 mg BID)): 14.42 (6.4875) ng/mL
Plasma Ctrough, geometric mean (geometric CV %) (Day 8, Cohort 3 (12 mg BID)): 4.892 (2.8780) ng/mL
Plasma Cavg, geometric mean (geometric CV %) (Day 8, Cohort 4A (15 mg BID)): 16.64 (4.4047) ng/mL
Plasma Ctrough, geometric mean (geometric CV %) (Day 8, Cohort 4A (15 mg BID)): 5.557 (2.3832) ng/mL
Plasma Cavg, geometric mean (geometric CV %) (Day 8, Cohort 4B (18 mg BID)): 20.62 (8.3690) ng/mL
Plasma Ctrough, geometric mean (geometric CV %) (Day 8, Cohort 4B (18 mg BID)): 7.427 (3.4830) ng/mL
Plasma Cavg, geometric mean (geometric CV %) (Day 9, Cohort 1 (6 mg TID)): 11.03 (3.3822) ng/mL
Plasma Ctrough, geometric mean (geometric CV %) (Day 9, Cohort 1 (6 mg TID)): 5.181 (1.9717) ng/mL
Plasma Cavg, geometric mean (geometric CV %) (Day 9, Cohort 2 (12 mg TID)): 27.22 (17.047) ng/mL
Plasma Ctrough, geometric mean (geometric CV %) (Day 9, Cohort 2 (12 mg TID)): 14.74 (13.800) ng/mL
Plasma Cavg, geometric mean (geometric CV %) (Day 9, Cohort 3 (12 mg BID)): 14.85 (6.1228) ng/mL
Plasma Ctrough, geometric mean (geometric CV %) (Day 9, Cohort 3 (12 mg BID)): 4.864 (2.7031) ng/mL
Plasma Cavg, geometric mean (geometric CV %) (Day 9, Cohort 4A (15 mg BID)): 17.84 (4.6403) ng/mL
Plasma Ctrough, geometric mean (geometric CV %) (Day 9, Cohort 4A (15 mg BID)): 6.497 (2.3570) ng/mL
Plasma Cavg, geometric mean (geometric CV %) (Day 9, Cohort 4B (18 mg BID)): 22.23 (10.604) ng/mL
Plasma Ctrough, geometric mean (geometric CV %) (Day 9, Cohort 4B (18 mg BID)): 7.066 (4.3229) ng/mL
Plasma Cavg, geometric mean (geometric CV %) (Day 10, Cohort 1 (6 mg TID)): 10.71 (2.8291) ng/mL
Plasma Ctrough, geometric mean (geometric CV %) (Day 10, Cohort 1 (6 mg TID)): 5.730 (1.7982) ng/mL
Plasma Cavg, geometric mean (geometric CV %) (Day 10, Cohort 2 (12 mg TID)): 27.73 (18.586) ng/mL
Plasma Ctrough, geometric mean (geometric CV %) (Day 10, Cohort 2 (12 mg TID)): 14.30 (11.743) ng/mL
Plasma Cavg, geometric mean (geometric CV %) (Day 10, Cohort 3 (12 mg BID)): 14.14 (6.2142) ng/mL
Plasma Ctrough, geometric mean (geometric CV %) (Day 10, Cohort 3 (12 mg BID)): 3.951 (2.4984) ng/mL
Plasma Cavg, geometric mean (geometric CV %) (Day 10, Cohort 4A (15 mg BID)): 16.70 (5.0410) ng/mL
Plasma Ctrough, geometric mean (geometric CV %) (Day 10, Cohort 4A (15 mg BID)): 4.372 ng/mL
Plasma Cavg, geometric mean (geometric CV %) (Day 10, Cohort 4B (18 mg BID)): 19.64 (6.8876) ng/mL
Plasma Ctrough, geometric mean (geometric CV %) (Day 10, Cohort 4B (18 mg BID)): 5.185 (2.4429) ng/mL
half-life (3 mg, Day 1, single 3 mg dose, Cohort 1, read-out: apparent terminal half-life (converted)): 3.1 h
Tmax (3 mg, Day 1, single 3 mg dose, Cohort 1, read-out: plasma Tmax, median): 1 h
Cmax (3 mg, Day 1, single 3 mg dose, Cohort 1, read-out: plasma geometric mean Cmax): 4.7 ng/mL
half-life (6 mg, Day 1, single 6 mg dose, Cohorts 2, 3, 4A, 4B, read-out: apparent terminal half-life (converted)): 3.1 to 3.3 h
Tmax (6 mg, Day 1, single 6 mg dose, Cohorts 2, 3, 4A, 4B, read-out: plasma Tmax, median): 0.98 to 1.14 h
Cmax (6 mg, Day 1, single 6 mg dose, Cohorts 2, 3, 4A, 4B, read-out: plasma geometric mean Cmax): 7.8 to 12.4 ng/mL
AUC (6 mg, Day 8, Cohort 1 (6 mg TID)): 77.1 ng·h/mL
Cmax (6 mg, Day 8, Cohort 1 (6 mg TID), read-out: Plasma Cmax, geometric mean (geometric CV %)): 16.6 ng/mL
half-life (6 mg, Day 8, Cohort 1 (6 mg TID), read-out: Plasma T1/2, mean (SD) (converted)): 4.49 h
Tmax (6 mg, Day 8, Cohort 1 (6 mg TID), read-out: Plasma Tmax, median (minimum, maximum)): 1.54 h
AUC (6 mg, Day 9, Cohort 1 (6 mg TID)): 84.9 ng·h/mL
Cmax (6 mg, Day 9, Cohort 1 (6 mg TID), read-out: Plasma Cmax, geometric mean (geometric CV %)): 18.4 ng/mL
half-life (6 mg, Day 9, Cohort 1 (6 mg TID), read-out: Plasma T1/2, mean (SD) (converted)): 3.85 h
Tmax (6 mg, Day 9, Cohort 1 (6 mg TID), read-out: Plasma Tmax, median (minimum, maximum)): 0.94 h
AUC (6 mg, Day 10, Cohort 1 (6 mg TID)): 82.6 ng·h/mL
Cmax (6 mg, Day 10, Cohort 1 (6 mg TID), read-out: Plasma Cmax, geometric mean (geometric CV %)): 16.5 ng/mL
half-life (6 mg, Day 10, Cohort 1 (6 mg TID), read-out: Plasma T1/2, mean (SD) (converted)): 4.63 h
Tmax (6 mg, Day 10, Cohort 1 (6 mg TID), read-out: Plasma Tmax, median (minimum, maximum)): 1.03 h
AUC (12 mg, Day 8, Cohort 2 (12 mg TID)): 190 ng·h/mL
Cmax (12 mg, Day 8, Cohort 2 (12 mg TID), read-out: Plasma Cmax, geometric mean (geometric CV %)): 36.7 ng/mL
half-life (12 mg, Day 8, Cohort 2 (12 mg TID), read-out: Plasma T1/2, mean (SD) (converted)): 4.74 h
Tmax (12 mg, Day 8, Cohort 2 (12 mg TID), read-out: Plasma Tmax, median (minimum, maximum)): 1.01 h
AUC (12 mg, Day 8, Cohort 3 (12 mg BID)): 156 ng·h/mL
Cmax (12 mg, Day 8, Cohort 3 (12 mg BID), read-out: Plasma Cmax, geometric mean (geometric CV %)): 30.3 ng/mL

— patent publication US20240216392A1, “METHODS OF TREAMENT” (Arena Pharmaceuticals, Inc., priority 2022, published 2024)
